Data published in US20070049564A1 (Wyeth, priority 2005, published 2007).
Where two headings read alike, the source gives them in different places.

Key:
E. faecalis GC 2267 = experiment: MIC, broth microdilution; conditions: Enterococcus faecalis, GC2267, E. faecalis GC 2267
E. coli GC 4560 = experiment: MIC, broth microdilution; conditions: Escherichia coli, GC4560, E. coli GC 4560
E. coli GC 2272 = experiment: MIC, broth microdilution; conditions: Escherichia coli, GC2272, E. coli GC 2272
S. epidermidis GC 4935 = experiment: MIC, broth microdilution; conditions: Staphylococcus epidermidis, GC4935, S. epidermidis GC 4935
S. agalactiae GC 4564 = experiment: MIC, broth microdilution; conditions: Streptococcus agalactiae, GC4564, S. agalactiae GC 4564
E. faecalis GC 2242 = experiment: MIC, broth microdilution; conditions: Enterococcus faecalis, GC2242, E. faecalis GC 2242
S. aureus GC 1079 = experiment: MIC, broth microdilution; conditions: Staphylococcus aureus, GC1079, S. aureus GC 1079
E. coli GC 4559 = experiment: MIC, broth microdilution; conditions: Escherichia coli, GC4559, E. coli GC 4559
S. aureus GC 4536 = experiment: MIC, broth microdilution; conditions: Staphylococcus aureus, GC4536, S. aureus GC 4536
S. pneumoniae+ GC 4465 = experiment: MIC, broth microdilution; conditions: Streptococcus pneumoniae, S. pneumoniae+ GC 4465
S. aureus GC 6467 = experiment: MIC, broth microdilution; conditions: Staphylococcus aureus, GC6467, S. aureus GC 6467
Staph. aureus Smith = experiment: In vivo activity (oral, iv; ED50) against Staph. aureus Smith in mice
Method: Representative examples of compounds of Formula I were tested for the oral efficacy using S. aureus Smith in mice.

E. coli GC 6465 = experiment: MIC, broth microdilution; conditions: Escherichia coli, GC6465, E. coli GC 6465
E. coli GC 2235 = experiment: MIC, broth microdilution; conditions: Escherichia coli, GC2235, E. coli GC 2235
E. faecalis GC 4555 = experiment: MIC, broth microdilution; conditions: Enterococcus faecalis, GC4555, E. faecalis GC 4555
S. aureus GC 1131 = experiment: MIC, broth microdilution; conditions: Staphylococcus aureus, GC1131, S. aureus GC 1131
E. coli GC 1073 = experiment: MIC, broth microdilution; conditions: Escherichia coli, GC1073, E. coli GC 1073
Method: Antimicrobial susceptibility testing. The in vitro activities of the antibiotics are determined by the broth microdilution method as recommended by the National Committee for Clinical Laboratory Standards (NCCLS) (1). Mueller-Hinton II broth (MHBII)(BBL Cockeysville, Md.) is the medium employed in the testing procedures. Microtiter plates containing serial dilutions of each antimicrobial agent are inoculated with each organism to yield the appropriate density (10^5 CFU/ml) in a 100 μl final volume. The plates are incubated for 18-22 hours at 35° C. in ambient air.
Representative compounds were first incubated in mouse serum for an hour prior to the in vitro testing against a panel of selected gram-positive and gram-negative bacteria strains. All compounds were also pre-incubated in water for an hour prior to testing as control. Representative compounds of Formula I were incubated in human serum prior to MIC determination.

S. typhimurium GC 2172 = experiment: MIC, broth microdilution; conditions: Salmonella enterica, TYPHIMURIUM, S. typhimurium GC 2172
c. albicans GC 3066 = experiment: MIC, broth microdilution
S. pneumoniae* GC 4465 = experiment: MIC, broth microdilution; conditions: Streptococcus pneumoniae, S. pneumoniae* GC 4465
[1] = Staphylococcus aureus, in Mus musculus, po, read-out: ED50 Staph Smith SOD
[2] = iv, read-out: ED50 Staph Smith SIV
[3] = c. albicans GC 3066, Water pre-incubation

CCCN(CC(=O)Nc1cc(N(C)C)c2c(c1O)C(=O)C1=C(O)[C@]3(O)C(=O)C(C(N)=O)=C(O)[C@@H](N(C)C)[C@@H]3C[C@@H]1C2)C(=O)OCOC(=O)c1ccc(C)cc1 [Example 5, ({[(2-{[(5aR,6aS,7S,10aS)-9-(aminocarbonyl)-4,7-bis(dimethylamino)-1,8,10a,11-tetrahydroxy-10,12-dioxo-5,5a,6,6a,7,10,10a,12-octahydrotetracen-2-yl]amino}-2-oxoethyl)(propyl)amino]carbonyl}oxy)methyl 4-methylbenzoate]
1 µg/mL: MIC (E. coli GC 2272; Mouse Serum pre-incubation) | MIC (S. epidermidis GC 4935; Mouse Serum pre-incubation) | MIC (E. faecalis GC 2242; Mouse Serum pre-incubation) | MIC (S. aureus GC 4536; Mouse Serum pre-incubation) | MIC (S. aureus GC 4536; Water pre-incubation) | MIC (E. coli GC 2235; Mouse Serum pre-incubation) | MIC (E. faecalis GC 4555; Mouse Serum pre-incubation) | MIC (S. aureus GC 1131; Water pre-incubation)
32 µg/mL: MIC (E. coli GC 2272; Water pre-incubation) | MIC (E. coli GC 4559; Water pre-incubation) | MIC (E. coli GC 1073; Water pre-incubation)
2 µg/mL: MIC (E. faecalis GC 2267; Mouse Serum pre-incubation) | MIC (S. epidermidis GC 4935; Water pre-incubation) | MIC (E. faecalis GC 2242; Water pre-incubation) | MIC (S. aureus GC 1079; Mouse Serum pre-incubation) | MIC (S. aureus GC 1079; Water pre-incubation) | MIC (E. coli GC 4559; Mouse Serum pre-incubation) | MIC (S. pneumoniae+ GC 4465; Mouse Serum pre-incubation) | MIC (S. aureus GC 6467; Mouse Serum pre-incubation) | MIC (E. coli GC 1073; Mouse Serum pre-incubation)
8 µg/mL: MIC (E. coli GC 6465; Mouse Serum pre-incubation) | MIC (S. typhimurium GC 2172; Mouse Serum pre-incubation)
4 µg/mL: MIC (E. faecalis GC 2267; Water pre-incubation) | MIC (E. coli GC 4560; Water pre-incubation) | MIC (S. pneumoniae+ GC 4465; Water pre-incubation) | MIC (S. aureus GC 6467; Water pre-incubation) | MIC (E. faecalis GC 4555; Water pre-incubation)
0.5 mg/kg: ED50 (Staph. aureus Smith; Staphylococcus aureus, in Mus musculus, iv, read-out: ED50 SIV (Staph aureus Smith)) | ED50 (Staph. aureus Smith; [2])
0.5 µg/mL: MIC (E. coli GC 4560; Mouse Serum pre-incubation) | MIC (S. agalactiae GC 4564; Mouse Serum pre-incubation) | MIC (S. agalactiae GC 4564; Water pre-incubation) | MIC (S. aureus GC 1131; Mouse Serum pre-incubation)
0.12 µg/mL: MIC (S. pneumoniae* GC 4465; Water pre-incubation)
>64 UG/ML: MIC (c. albicans GC 3066; [3])
> 64 µg/mL: MIC (E. coli GC 6465; Water pre-incubation) | MIC (S. typhimurium GC 2172; Water pre-incubation) | MIC (c. albicans GC 3066; Candida albicans, GC3066)
16 µg/mL: MIC (E. coli GC 2235; Water pre-incubation)
8.51 mg/kg: ED50 (Staph. aureus Smith; Staphylococcus aureus, in Mus musculus, po, read-out: ED50 SOD (Staph aureus Smith)) | ED50 (Staph. aureus Smith; [1])
< 0.06 µg/mL: MIC (S. pneumoniae* GC 4465; Mouse Serum pre-incubation)

CCCN(CC(=O)Nc1cc(N(C)C)c2c(c1O)C(=O)C1=C(O)[C@]3(O)C(=O)C(C(N)=O)=C(O)[C@@H](N(C)C)[C@@H]3C[C@@H]1C2)C(=O)OCOC(=O)c1ccc(OC)cc1 [Example 6, ({[(2-{[(5aR,6aS,7S,10aS)-9-(aminocarbonyl)-4,7-bis(dimethylamino)-1,8,10a,11-tetrahydroxy-10,12-dioxo-5,5a,6,6a,7,10,10a,12-octahydrotetracen-2-yl]amino}-2-oxoethyl)(propyl)amino]carbonyl}oxy)methyl 4-methoxybenzoate]
0.5 µg/mL: MIC (S. agalactiae GC 4564; Mouse Serum pre-incubation) | MIC (S. agalactiae GC 4564; Water pre-incubation) | MIC (S. aureus GC 4536; Mouse Serum pre-incubation) | MIC (S. aureus GC 1131; Mouse Serum pre-incubation)
1 µg/mL: MIC (E. faecalis GC 2267; Mouse Serum pre-incubation) | MIC (E. coli GC 2272; Mouse Serum pre-incubation) | MIC (S. epidermidis GC 4935; Mouse Serum pre-incubation) | MIC (E. faecalis GC 2242; Mouse Serum pre-incubation) | MIC (E. coli GC 2235; Mouse Serum pre-incubation) | MIC (E. faecalis GC 4555; Mouse Serum pre-incubation) | MIC (S. aureus GC 1131; Water pre-incubation)
8 µg/mL: MIC (E. coli GC 2235; Water pre-incubation) | MIC (S. typhimurium GC 2172; Mouse Serum pre-incubation)
2 µg/mL: MIC (E. coli GC 4560; Water pre-incubation) | MIC (E. faecalis GC 2242; Water pre-incubation) | MIC (S. aureus GC 1079; Mouse Serum pre-incubation) | MIC (E. coli GC 4559; Mouse Serum pre-incubation) | MIC (S. aureus GC 4536; Water pre-incubation) | MIC (S. pneumoniae+ GC 4465; Mouse Serum pre-incubation) | MIC (S. pneumoniae+ GC 4465; Water pre-incubation) | MIC (S. aureus GC 6467; Mouse Serum pre-incubation) | MIC (E. coli GC 1073; Mouse Serum pre-incubation)
4 µg/mL: MIC (E. faecalis GC 2267; Water pre-incubation) | MIC (S. epidermidis GC 4935; Water pre-incubation) | MIC (S. aureus GC 1079; Water pre-incubation) | MIC (S. aureus GC 6467; Water pre-incubation) | MIC (E. coli GC 6465; Mouse Serum pre-incubation) | MIC (E. faecalis GC 4555; Water pre-incubation)
0.25 µg/mL: MIC (E. coli GC 4560; Mouse Serum pre-incubation) | MIC (S. pneumoniae* GC 4465; Water pre-incubation)
>64 UG/ML: MIC (c. albicans GC 3066; [3])
0.87 mg/kg: ED50 (Staph. aureus Smith; [2])
20.1 mg/kg: ED50 (Staph. aureus Smith; [1])
16 µg/mL: MIC (E. coli GC 2272; Water pre-incubation) | MIC (E. coli GC 4559; Water pre-incubation) | MIC (E. coli GC 1073; Water pre-incubation)
0.12 µg/mL: MIC (S. pneumoniae* GC 4465; Mouse Serum pre-incubation)
> 64 µg/mL: MIC (E. coli GC 6465; Water pre-incubation) | MIC (S. typhimurium GC 2172; Water pre-incubation) | MIC (c. albicans GC 3066; Candida albicans, GC3066)
